Measured values as given in patent publication US20260284208A1, “SYSTEM” (Oxford University Innovation Limited, priority 2023, published 2026).

Columns and labels:
[1] = molecular target: IKZF3 130-189aa Q147A N149E Q150V S154K (AEVK) ZF-GFP (Homo sapiens, UniProt Q96SW2+Q9UKT9, N149E/Q147A/Q150V/S154K); assay: GFP degradation flow cytometry assay, AEVK mutant ZF-eGFP; format: cell-based
Protocol: (§1) The following method was used to generate lentiviral vectors for plasmids tested in library hit confirmation experiments: WT, QPIS, ANQS, APIS, HEIP, FEVP, WEIK, FDIP, AEVK, WNQS, WEIS, WNIQ, and WDIA. HEK293T cells were seeded into 6 well TC-treated cell culture dishes (Falcon) at 7×10^5 cells per well and incubated overnight at 37° C. and 5% CO2. […] In a separate tube 2 μL of PEIPro (Polyplus) was added to 100 μL of OptiMEM. The solution containing PEIPro and DNA was mixed and incubated at room temperature for 15 minutes to create the transfection mixture. The transfection mixture was added to cells and incubated for 5-6 hours at 37° C. and 5% CO2. After 2 days, the supernatant was harvested and fresh media was added to cells. 24 hours later, the supernatant was harvested and combined with the first supernatant harvested. Supernatant was centrifuged at 2000×g room temperature for 5 minutes, then the supernatant was filtered through a 0.45 μm cellulose acetate syringe filter and frozen at −80° C. […]
(§2) Jurkat cells were added to 96 well U-bottom assay plates (Falcon) at 1×10^5 cells per well and treated with compounds for 18 hours at 37° C. and 5% CO2. […] Data was analysed using FlowJo 10.8.1 (BD).
(§3) Having assessed the broad trends from this library screen, the sequences with the highest log FC values for A63 and B08 were selected and transduced into separate Jurkat cell lines. […]

[2] = molecular target: IKZF3 130-189aa Q147W N149E Q150I (WEIS) ZF-GFP (Homo sapiens, UniProt Q96SW2+Q9UKT9, N149E/Q147W/Q150I); assay: GFP degradation flow cytometry assay, WEIS mutant ZF-eGFP; format: cell-based
Protocol: as §1, §2, §3

[3] = from pDC50 values, 12 concentrations 5 nM-10 μM

Sequence of IKZF3 130-189aa Q147A N149E Q150V S154K (AEVK) ZF-GFP (Q9UKT9 130-189 Q147A/N149E/Q150V/S154K): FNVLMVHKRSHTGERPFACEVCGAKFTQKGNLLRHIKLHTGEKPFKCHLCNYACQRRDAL
Sequence of IKZF3 130-189aa Q147A N149E Q150V S154K (AEVK) ZF-GFP (Q96SW2 whole entry): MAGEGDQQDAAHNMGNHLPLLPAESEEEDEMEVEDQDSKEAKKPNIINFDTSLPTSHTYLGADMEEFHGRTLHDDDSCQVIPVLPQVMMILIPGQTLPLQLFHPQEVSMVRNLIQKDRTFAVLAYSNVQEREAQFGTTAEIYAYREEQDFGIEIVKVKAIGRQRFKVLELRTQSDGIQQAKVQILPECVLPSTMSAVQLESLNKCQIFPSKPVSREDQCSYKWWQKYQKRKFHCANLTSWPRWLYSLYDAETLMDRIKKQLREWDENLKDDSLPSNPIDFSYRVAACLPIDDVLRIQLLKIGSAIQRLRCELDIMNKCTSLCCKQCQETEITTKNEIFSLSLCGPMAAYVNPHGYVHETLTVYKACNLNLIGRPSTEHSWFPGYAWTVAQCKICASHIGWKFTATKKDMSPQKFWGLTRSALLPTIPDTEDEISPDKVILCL
Sequence of IKZF3 130-189aa Q147W N149E Q150I (WEIS) ZF-GFP (Q9UKT9 130-189 Q147W/N149E/Q150I): as the sequence (Q9UKT9 130-189 Q147A/N149E/Q150V/S154K) above, with A18W, V21I, K25S counted along it
Sequence of IKZF3 130-189aa Q147W N149E Q150I (WEIS) ZF-GFP (Q96SW2 whole entry): as the sequence (Q96SW2 whole entry) above

In the case of CC(C)(C)c1ccc2c(c1)C(=O)N(C1CCC(=O)NC1=O)C2=O (stereo not shown) [A63, 5-(tert-butyl)-2-(2,6-dioxopiperidin-3-yl)isoindoline-1,3-dione], the percent degradation of ZF-GFP reporter at up to 10 µM ([1]; 18 h, 10 μM, Jurkat, flow cytometry concentration curve, read-out: degradation of the top mutant ZF-GFP (AEVK)) is reported as about 100% and the “selectivity compared to the WT ZF (AEVK)” value [1, 3] is reported as “around 30 ×”.
For CN1CCN(c2ccc3c(c2)C(=O)N(C2CCC(=O)NC2=O)C3=O)CC1 (stereo not shown) [B08, 2-(2,6-dioxopiperidin-3-yl)-5-(4-methylpiperazin-1-yl)isoindoline-1,3-dione], the inhibition at up to 10 µM ([2]; 18 h, 10 μM, Jurkat, flow cytometry concentration curve, read-out: degradation of the top mutant ZF-GFP (WEIS)) was about 100% and the “selectivity compared to the WT ZF (WEIS)” value [2, 3] was “around 30 ×”.
